Measured values published in US20200046869A1, “USE OF ZINC TREATED PRECIPITATED CALCIUM CARBONATE IN HYGIENIC PRODUCTS” (Omya International AG, priority 2017, published 2020).

Columns and labels:
Fungi = experiment: Plate count of fungal growth in zinc containing powders; type: cell-based; details: powder in disruption buffer, Sabouraud-Glucose agar, 7 days at 25° C.; detection limit 10 cfu/g
Protocol: The microbial contamination (bacterial and fungi growth) of three different zinc containing powder samples was determined by the plate count method (spread count) according to the following procedure: 1 g of the respective powder and 9 ml sterile disruption buffer (DB) were weighed into a sterile 50 ml test tube (Greiner) under aseptic conditions using an autoclaved disposable spatula (VWR) in order to obtain suspensions of the zinc containing powder samples. To detach the microorganisms from the zinc containing powders samples, the suspensions were shaken on a vortex for 60 sec. at 2500 rpm before being put on a shaker for 30 minutes at motor setting 1400 (at room temperature, i.e. 21° C.). The sample to be analyzed was appropriately diluted and a defined volume no greater than 0.1 ml was spread over the surface of an agar plate using a sterile glass/plastic spreader. The agar plates were then incubated upside down (condensed water) for a defined period of time at a defined temperature. The sample to be analyzed was diluted 1:10 in PBS and 100 μl of the dilution were spread onto the plate which was incubated for 7 days at 25° C. The plates were evaluated by counting the grown colonies, thereby taking into account that only plates containing between 30-300 colonies have a high statistical significance. […]

[1] = system: Aerobe bacteria (TSA plates); experiment: Plate count of aerobe total viable count in zinc containing powders; type: cell-based; details: powder in disruption buffer, 48 hours at 30° C., detection limit 100 cfu/g
Protocol: The microbial contamination (bacterial and fungi growth) of three different zinc containing powder samples was determined by the plate count method (spread count) according to the following procedure: 1 g of the respective powder and 9 ml sterile disruption buffer (DB) were weighed into a sterile 50 ml test tube (Greiner) under aseptic conditions using an autoclaved disposable spatula (VWR) in order to obtain suspensions of the zinc containing powder samples. To detach the microorganisms from the zinc containing powders samples, the suspensions were shaken on a vortex for 60 sec. at 2500 rpm before being put on a shaker for 30 minutes at motor setting 1400 (at room temperature, i.e. 21° C.). The sample to be analyzed was appropriately diluted and a defined volume no greater than 0.1 ml was spread over the surface of an agar plate using a sterile glass/plastic spreader. The agar plates were then incubated upside down (condensed water) for a defined period of time at a defined temperature. The sample to be analyzed was diluted 1:10 in PBS and 100 μl of the dilution was spread onto the TSA plate which was incubated for 48 hours at 30° C. The plates were evaluated by counting the grown colonies, thereby taking into account that only plates containing between 30-300 colonies have a high statistical significance. […]

Structure (SMILES) | TVC Fungi (Fungi) | TVC Aerobe [1]
O=C([O-])[O-].[Zn+2] [ZnCaCO3, ZnCO3] | <10 cfu/g | <100 cfu/g
[O]=[Zn] [ZnO] | <10 cfu/g | <100 cfu/g
